For ten compounds, half-life and IC50 results are on record in patent US10689377B2 (Mirati Therapeutics, Inc., priority 2017, dated 2020).

The nature of series [1]: In vitro stability in human whole blood. The class given is in vitro ADME. The following applies: male, whole blood diluted to 50% with PBS, pH 7.4, human whole blood diluted to 50% with PBS, 5 μM, 37° C., 240-minute incubation, read-out: Compound Half-life. An excerpt:
Materials: The following reagents were used as received: acetonitrile (HPLC grade, Burdick & Jackson, Madison, Wis.), phosphate buffered saline (PBS), pH 7.4 (Sigma-Aldrich, Co., St. Louis, Mo.), water (HPLC grade, JT Baker, Phillipsburg, N.J.), DMSO (EM Science, Merck KGaA, Darmstadt, Germany) and isopropanol (IPA, reagent grade, EMD Chemicals, Gibbstown, N.J.). Propantheline and esmolol (Sigma-Aldrich) were used as the positive control compounds in the assay. Diazepam (Sigma-Aldrich) was used as an internal standard for quantitation. Human whole blood was obtained from BioIVT (Westbury, N.Y.) […]. All other reagents and solvents were of the highest analytical grade supplied by Sigma (St. Louis, Mo.) and were used as received.
Blood Incubations: The in vitro stability of representative KRas G12C inhibitor compounds of the present invention in the presence whole blood was conducted in the following manner. Esmolol or propantheline, which are known to undergo ester hydrolysis by esterases in blood and plasma, were used as the positive controls in the assays. A 10 mM stock solution of propantheline, esmolol, or a compound of the present invention in DMSO was diluted to 500 μM with DMSO. Aliquots of whole blood (600 μL), in triplicate, were placed in the appropriate wells of a polypropylene 96-deep well plate (Axygen Scientific, Union City, Calif.). The blood was diluted to 50% using PBS, pH 7.4 (600 μL). The diluted blood was pre-incubated for 15 minutes at 37° C. Each well was dosed with 12 μL of the 500 μM DMSO stock simultaneously for a final test concentration of 5 μM. The plates were mixed at 600 rpm for 10 seconds on a plate shaker (IKA MTS 2/4 Digital Microtiter Shaker, VWR). Aliquots of 100 μL from each well of whole blood were transferred to three separate 96-deep well plates labeled 0, 60, or 240 minutes. At the end of each designated time point, the red blood cells were lysed with 100 μL of water, mixed at 600 rpm for one minute, and stopped with 800 μL of acetonitrile containing IS (0.625 μM diazepam). The plates were mixed on the plate shaker at 600 rpm for one minute and spun in a centrifuge at 2095×g for 7 minutes at room temperature using an Allegra benchtop centrifuge (Beckman Coulter, Fullerton, Calif.). Supernatant (100 μL) was transferred to a shallow 96-well plate (Costar) using a liquid sample handling system (Apricot, Perkin-Elmer, Boston, Mass.). The addition of 100 μL of water was added to each sample of supernatant for a final volume of 200 μL. The plates were sealed and the contents of each well were analyzed by LC-MS/MS.
Analytical quantitation: The LC-MS/MS system was comprised of an HTS-PAL autosampler (Leap Technologies, Carrboro, N.C.), an HP1200 HPLC (Agilent, Palo Alto, Calif.), and an API4000 triple quadrupole mass spectrometer (PE Sciex, a division of Applied Biosystems, Foster City, Calif.). […] The total run time, including re-equilibration, for a single injection was 2 minutes. Mass spectrometric detection of the analytes was accomplished using the ESI ionization mode. Ion current was optimized during infusion of a stock solution of propantheline, esmolol, or the representative test compound. Analyte responses, including the IS were measured by multiple reaction monitoring (MRM) of transitions unique to each compound.
Calculations: Data were acquired and peak areas were calculated for test compounds and the internal standard using Analyst 1.6.2 software (Sciex). The mean peak area ratios were calculated by averaging the peak area ratios (n=3) of each test compound and the IS for each sample.
Peak area tables were exported to BioAssay Enterprise (CambridgeSoft, Cambridge, Mass.), where the average analyte-to-internal standard peak area ratios were used to calculate percent remaining (% REM) and half-life (t1/2). Percent remaining (f) was calculated by determining the ratio of the peak area ratio at each time point to the peak area ratio of the time-zero samples. […]

The next series deals with KRas G12C (Homo sapiens, UniProt P01116, G12C). As to the kind of experiment: Cellular inhibition of KRas G12C measured by Phospho-ERK in NCI-H358 cells. The class given is cell-based. The following applies: pERK(Thr202/Tyr204) normalized with GAPDH, NCI-H358 cells, 3 hours; read-out: IC50. Summed up:
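Following 8-12 h attachment, NCI-H358 cells got serially diluted compound (0.5% DMSO) for 3 hours. Cells were then fixed, permeabilized with cold methanol, and stained for pERK(Thr202/Tyr204) and GAPDH. Ratios were converted to percent of DMSO control, with IC50 obtained by four-parameter regression.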

Sequence of KRas G12C (P01116 1-188 isoform P01116-2 G12C): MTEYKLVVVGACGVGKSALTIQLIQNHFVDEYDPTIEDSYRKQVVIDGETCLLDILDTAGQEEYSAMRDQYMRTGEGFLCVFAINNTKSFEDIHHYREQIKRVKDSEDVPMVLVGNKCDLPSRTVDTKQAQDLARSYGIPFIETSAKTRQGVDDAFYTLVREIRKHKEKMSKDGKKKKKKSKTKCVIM

Turning to `CN1CCC[C@H]1COc1nc2c(c(N3CCN(C(=O)/C=C/C(F)(F)F)[C@@H](CC#N)C3)n1)CCN(c1cccc3cccc(Cl)c13)C2` [Example 490, 2-((S)-4-(7-(8-chloronaphthalen-1-yl)-2-(((S)-1-methylpyrrolidin-2-yl)methoxy)-5,6,7,8-tetrahydropyrido[3,4-d]pyrimidin-4-yl)-1-((E)-4,4,4-trifluorobut-2-enoyl)piperazin-2-yl)acetonitrile], the half-life at 5 µM in series [1] is ≤ 3.33 h. Moreover, the IC50 on KRas G12C lay within 0.1 to 1000 nM.

With `C=C(COC)C(=O)N1CCN(c2nc(OC[C@@H]3CCCN3C)nc3c2CCN(c2cccc4cccc(Cl)c24)C3)C[C@@H]1CC#N` [Example 485, 2-[(2S)-4-[7-(8-chloro-1-naphthyl)-2-[[(2S)-1-methylpyrrolidin-2-yl]methoxy]-6,8-dihydro-5H-pyrido[3,4-d]pyrimidin-4-yl]-1-[2-(methoxymethyl)prop-2-enoyl]piperazin-2-yl]acetonitrile], the half-life at 5 µM in series [1] was > 33.3 h. The IC50 at KRas G12C was 0.1 to 1000 nM.

For `C=C(F)C(=O)N1CCN(c2nc(OC[C@@H]3CCCN3C)nc3c2CCN(c2cccc4cccc(C)c24)C3)C[C@@H]1CC#N` [Example 507], the half-life at 5 µM in series [1] is > 33.3 h. Also, the IC50 on KRas G12C is 0.1 to 1000 nM.

Take `CN1CCC[C@H]1COc1nc2c(c(N3CCN(C(=O)/C=C/CN4CCC(F)C4)[C@@H](CC#N)C3)n1)CCN(c1cccc3cccc(Cl)c13)C2` (stereo partly drawn) [Example 480, 2-[(2S)-4-[7-(8-chloro-1-naphthyl)-2-[[(2S)-1-methylpyrrolidin-2-yl]methoxy]-6,8-dihydro-5H-pyrido[3,4-d]pyrimidin-4-yl]-1-[(E)-4-(3-fluoropyrrolidin-1-yl)but-2-enoyl]piperazin-2-yl]acetonitrile]: the half-life at 5 µM in series [1] is > 33.3 h. For the same compound, at KRas G12C, the IC50 lay within 0.1 to 1000 nM.

Consider `Cc1cccc2cccc(N3CCc4c(nc(OC[C@@H]5CCCN5C)nc4N4CCN(C(=O)/C=C/CO)[C@@H](CC#N)C4)C3)c12` [Example 510, 2-((S)-1-((E)-4-hydroxybut-2-enoyl)-4-(7-(8-methylnaphthalen-1-yl)-2-(((S)-1-methylpyrrolidin-2-yl)methoxy)-5,6,7,8-tetrahydropyrido[3,4-d]pyrimidin-4-yl)piperazin-2-yl)acetonitrile], for which the half-life at 5 µM in series [1] is 16.7 to 33.3 h. Besides, on KRas G12C, the IC50 fell in the range of 0.1 to 1000 nM.

Turning to `Cc1cccc2cccc(N3CCc4c(nc(OC[C@H]5CCCN5C)nc4N4CCN(C(=O)/C=C/CO)[C@@H](CC#N)C4)C3)c12` [Example 517, 2-((S)-1-((E)-4-hydroxybut-2-enoyl)-4-(7-(8-methylnaphthalen-1-yl)-2-(((R)-1-methylpyrrolidin-2-yl)methoxy)-5,6,7,8-tetrahydropyrido[3,4-d]pyrimidin-4-yl)piperazin-2-yl)acetonitrile], the half-life at 5 µM in series [1] fell in the range of 16.7 to 33.3 h. Also, on KRas G12C, the half-maximal inhibitory concentration (IC50) lay within 0.1 to 1000 nM.

Regarding `Cc1cccc2cccc(N3CCc4c(nc(OC[C@@H]5CCCN5C)nc4N4CCN(C(=O)/C=C/CF)[C@@H](CC#N)C4)C3)c12` [Example 506, 2-((S)-1-((E)-4-fluorobut-2-enoyl)-4-(7-(8-methylnaphthalen-1-yl)-2-(((S)-1-methylpyrrolidin-2-yl)methoxy)-5,6,7,8-tetrahydropyrido[3,4-d]pyrimidin-4-yl)piperazin-2-yl)acetonitrile], the half-life at 5 µM in series [1] lay in the range of 16.7 to 33.3 h. Besides, the IC50 on KRas G12C was in the range of 0.1 to 1000 nM.

On to `Cc1cccc2cccc(N3CCc4c(nc(OC[C@@H]5CCCN5C)nc4N4CCN(C(=O)/C=C/C(F)F)[C@@H](CC#N)C4)C3)c12` [Example 495, 2-((S)-1-((E)-4,4-difluorobut-2-enoyl)-4-(7-(8-methylnaphthalen-1-yl)-2-(((S)-1-methylpyrrolidin-2-yl)methoxy)-5,6,7,8-tetrahydropyrido[3,4-d]pyrimidin-4-yl)piperazin-2-yl)acetonitrile], for which, in series [1], the half-life at 5 µM is 3.33 to 16.7 h. The IC50 on KRas G12C lay within 0.1 to 1000 nM.

Consider `CN1CCC[C@H]1COc1nc2c(c(N3CCN(C(=O)/C=C/CN4CCCCC4)[C@@H](CC#N)C3)n1)CCN(c1cccc3ccccc13)C2` [Example 236, 2-((S)-4-(2-(((S)-1-methylpyrrolidin-2-yl)methoxy)-7-(naphthalen-1-yl)-5,6,7,8-tetrahydropyrido[3,4-d]pyrimidin-4-yl)-1-(E-4-(piperidin-1-yl)but-2-enoyl)piperazin-2-yl)acetonitrile], for which, in series [1], the half-life at 5 µM was 3.33 to 16.7 h. In addition, the IC50 on KRas G12C was in the range of 0.1 to 1000 nM.

Take `Cc1cccc2cccc(N3CCc4c(nc(OC[C@@H]5CCCN5C)nc4N4CCN(C(=O)/C=C/C(F)(F)F)[C@@H](CC#N)C4)C3)c12` [Example 491, 2-((S)-4-(7-(8-methylnaphthalen-1-yl)-2-(((S)-1-methylpyrrolidin-2-yl)methoxy)-5,6,7,8-tetrahydropyrido[3,4-d]pyrimidin-4-yl)-1-((E)-4,4,4-trifluorobut-2-enoyl)piperazin-2-yl)acetonitrile]: the half-life at 5 µM in series [1] was ≤ 3.33 h. Also, the IC50 on KRas G12C fell in the range of 0.1 to 1000 nM.
